This is an account of results in US12419893B2, “Methods and compositions for maximizing the prevention and/or reduction of various maladies and drug side-effects using uridine” (Tosk, Inc., priority 2018, dated 2025).

Series [1] deals with female CD-1 mice. The experiment in a line: Protection from 5-FU induced weight loss, study I (FIG. 2). It is filed as in vivo. The following applies: n=6. Here is the method: The aim of this study was to explore whether uridine combined with a uridine phosphorylase inhibitor provided better protection from weight loss produced by 5-FU compared to uridine alone. Weight loss is one of the cardinal features of mucositis.
Four groups of female CD-1 mice were treated with daily ip injections of either PBS vehicle (Group 1), 80 mg/kg, 5-FU qdx5 (Groups 2), or 80 mg/kg, 5-FU qdx5 combined with 750 mg/kg uridine, bid, or 80 mg/kg, 5-FU qdx5 combined with 750 mg/kg uridine and 120 mg/kg bid TK-90, a representative 2,2′-anhydropyrimidine test article, sandwiched before and after the uridine doses. Controls include PBS alone at times mimicking the time for 5-FU and combined uridine and TK-90 treatments. There was n=6 animals in all groups.
Animals were sacrificed on Day 5 by cervical dislocation and properly disposed. Animal weights were recorded daily for 5 days and the % difference between Day 0 and Day 5 at termination calculated.
Results from the study are provided as percent weight gain/loss from pre-dose weight on Day 0 in FIG. 2. […] The statistical difference between Groups 2 and 3 was much less robust (p=0.036).

Series [2] deals with C57BL/6 female mice. The experiment in a line: Protection from decrease in plasma citrulline caused by 5-FU (FIG. 4). It is filed as in vivo. As for the experimental part:
The chemotherapeutic challenge, 5-FU, was diminished plasma citrulline. […] Citrulline is a well-accepted surrogate marker for mucositis.
FIG. 4 depicts citrulline concentrations measured in plasma obtained at sacrifice on Day 3 from C57BL/6 female mice, approximately 20 g, treated on Day 0 with 200 mg/kg 5-FU, ip. On Days 0-2, the uridine and uridine+TK-90 group animals were dosed with […], bid. On Days 0-2, the uridine+TK-90 group animals were treated with 700 mg/kg TK-90, bid, in addition to the 5-FU on Day 0 and the uridine on Days 0-2. Animals in the PBS group were treated on Day 0-2 with PBS, bid. Data from all six mice in the PBS, uridine and uridine plus TK-90 groups were considered. Data from only five animals in the 5-FU group were considered because results from one animal was considered an outlier (unusually low response from the injected 5-FU). Plasma citrulline is a marker for mucosal health. […]
Thawed plasma samples from the study were analyzed for citrulline using a published LC/MS/MS-Isotope assay. (Jones et al., “Development and validation of a LC-MS/MS assay for quantitation of plasma citrulline for application to animal models of the acute radiation syndrome across multiple species,” Anal Bioanal Chem. (2014) 406 (19): 4663-75.).

For series [3] the following is noted: cited from earlier work.
The conditions of series [4]: man and animals (Deng et al. 2017); cited from earlier work.

Turning to `O=c1[nH]cc(F)c(=O)[nH]1` [Compound 5-FU, 5-fluoro-2,4 (1H,3H)-Pyrimidinedione], the “weight loss compared to the PBS vehicle control (percent weight change Day 5 vs Day 0)” value in series [1] (80 mg/kg 5-FU qdx5 ip) is “robust weight loss”. Further, in series [2] (200 mg/kg 5-FU ip Day 0, plasma at Day 3, n=5), the “plasma citrulline compared to the PBS vehicle control” value was “significant reduction in citrulline”.

For the compound `O=c1ccn([C@@H]2O[C@H](CO)[C@@H](O)[C@H]2O)c(=O)[nH]1` [uridine], the “protection from 5-FU induced weight loss compared to the 5-FU group alone” value in series [1] (Day 5 vs Day 0, 5-FU 80 mg/kg qdx5, uridine 750 mg/kg bid, TK-90 120 mg/kg bid, ip) is reported as “statistically significant but much less”. Moreover, in series [3] (continuous infusion), the “toxicities of continuous infusions of high-dose uridine” value was “high fever, cellulitis, and superior vena cava syndrome”. Besides, the “toxicity of high-dose oral uridine in clinical studies” value in series [3] (oral, patients) is “severe patient diarrhea, phlebitis, and pyrogenic reactions”. The “protection from 5-FU lowered plasma citrulline” value in series [2] (5-FU 200 mg/kg ip Day 0, uridine 250 mg bid Days 0-2, TK-90 700 mg/kg bid Days 0-2, plasma Day 3, n=6) is “provided protection”. The “half-life of administered uridine” value in series [4] was approximately 3 min.
